Experimental data as given in the supplement of paper PMC8882468.

tested on: HCI-019 (organoid from a triple-negative breast cancer xenograft); assay: CTG-3D luminescence at 96 h relative to day-0 seeding control (ratio to day 0); higher = more growth / less cytotoxicity; PDxO 3D drug screen, 96 h, CTG-3D normalised to day-0 seeding control.; details: 10 µM; days in culture: 131

SMILES | CTG-3D luminescence at 96 h
COc1cc2c(Oc3ccc4[nH]c(C)cc4c3F)ncnc2cc1OCCCN1CCCC1 [cediranib] | 0.0352
CC(C)n1nc(-c2ccc3oc(N)nc3c2)c2c(N)ncnc21 [sapanisertib] | 0.681
Cc1cc(Nc2ncnc3ccc(NC4=NC(C)(C)CO4)cc23)ccc1Oc1ccn2ncnc2c1 [tucatinib] | 3.09
C[C@H](NC(=O)CCC(F)(F)F)C(=O)N[C@@H]1C(=O)N(CCO)c2ncccc2-c2ccccc21 [crenigacestat] | 2.81
C[C@]12CC[C@@H]3c4ccc(O)cc4C[C@@H](CCCCCCCCC[S+]([O-])CCCC(F)(F)C(F)(F)F)[C@H]3[C@@H]1CC[C@@H]2O (some centres not stated) [fulvestrant] | 2.98
O=C(c1ccc(F)c(F)c1Nc1ccc(I)cc1F)N1CC(O)([C@@H]2CCCCN2)C1 [cobimetinib] | 1.41
O=C(/C=C/c1cccnc1)NCCCCC1CCN(C(=O)c2ccccc2)CC1 [FK866] | 0.436
CS(=O)(=O)c1ccc(C(=O)Nc2ccc(Cl)c(-c3ccccn3)c2)c(Cl)c1 [vismodegib] | 2.53
C=CCn1c(=O)c2cnc(Nc3ccc(N4CCN(C)CC4)cc3)nc2n1-c1cccc(C(C)(C)O)n1 [adavosertib] | 0.381

same assay, conditions: 10 µM; days in culture: 152

SMILES | CTG-3D luminescence at 96 h
COc1cc2c(Oc3ccc4[nH]c(C)cc4c3F)ncnc2cc1OCCCN1CCCC1 [cediranib] | 0.22
CC(C)n1nc(-c2ccc3oc(N)nc3c2)c2c(N)ncnc21 [sapanisertib] | 0.616
Cc1cc(Nc2ncnc3ccc(NC4=NC(C)(C)CO4)cc23)ccc1Oc1ccn2ncnc2c1 [tucatinib] | 2.26
C[C@H](NC(=O)CCC(F)(F)F)C(=O)N[C@@H]1C(=O)N(CCO)c2ncccc2-c2ccccc21 [crenigacestat] | 2.12
C[C@]12CC[C@@H]3c4ccc(O)cc4C[C@@H](CCCCCCCCC[S+]([O-])CCCC(F)(F)C(F)(F)F)[C@H]3[C@@H]1CC[C@@H]2O (some centres not stated) [fulvestrant] | 2.3
O=C(c1ccc(F)c(F)c1Nc1ccc(I)cc1F)N1CC(O)([C@@H]2CCCCN2)C1 [cobimetinib] | 0.848
O=C(/C=C/c1cccnc1)NCCCCC1CCN(C(=O)c2ccccc2)CC1 [FK866] | 0.142
CS(=O)(=O)c1ccc(C(=O)Nc2ccc(Cl)c(-c3ccccn3)c2)c(Cl)c1 [vismodegib] | 1.82
C=CCn1c(=O)c2cnc(Nc3ccc(N4CCN(C)CC4)cc3)nc2n1-c1cccc(C(C)(C)O)n1 [adavosertib] | 0.452

same assay, conditions: 100 µM; days in culture: 110

SMILES | CTG-3D luminescence at 96 h
COc1cc2c(Oc3ccc4[nH]c(C)cc4c3F)ncnc2cc1OCCCN1CCCC1 [cediranib] | -0.00352
CC(C)n1nc(-c2ccc3oc(N)nc3c2)c2c(N)ncnc21 [sapanisertib] | 0.0143
Cc1cc(Nc2ncnc3ccc(NC4=NC(C)(C)CO4)cc23)ccc1Oc1ccn2ncnc2c1 [tucatinib] | 0.029
C[C@H](NC(=O)CCC(F)(F)F)C(=O)N[C@@H]1C(=O)N(CCO)c2ncccc2-c2ccccc21 [crenigacestat] | 2.44
C[C@]12CC[C@@H]3c4ccc(O)cc4C[C@@H](CCCCCCCCC[S+]([O-])CCCC(F)(F)C(F)(F)F)[C@H]3[C@@H]1CC[C@@H]2O (some centres not stated) [fulvestrant] | 1.73
O=C(c1ccc(F)c(F)c1Nc1ccc(I)cc1F)N1CC(O)([C@@H]2CCCCN2)C1 [cobimetinib] | -0.00268
O=C(/C=C/c1cccnc1)NCCCCC1CCN(C(=O)c2ccccc2)CC1 [FK866] | 0.042
CS(=O)(=O)c1ccc(C(=O)Nc2ccc(Cl)c(-c3ccccn3)c2)c(Cl)c1 [vismodegib] | 1.03
C=CCn1c(=O)c2cnc(Nc3ccc(N4CCN(C)CC4)cc3)nc2n1-c1cccc(C(C)(C)O)n1 [adavosertib] | 0.502

same assay, conditions: 100 µM; days in culture: 131

SMILES | CTG-3D luminescence at 96 h
COc1cc2c(Oc3ccc4[nH]c(C)cc4c3F)ncnc2cc1OCCCN1CCCC1 [cediranib] | -0.00454
CC(C)n1nc(-c2ccc3oc(N)nc3c2)c2c(N)ncnc21 [sapanisertib] | 0.0207
Cc1cc(Nc2ncnc3ccc(NC4=NC(C)(C)CO4)cc23)ccc1Oc1ccn2ncnc2c1 [tucatinib] | 0.0325
C[C@H](NC(=O)CCC(F)(F)F)C(=O)N[C@@H]1C(=O)N(CCO)c2ncccc2-c2ccccc21 [crenigacestat] | 3.41
C[C@]12CC[C@@H]3c4ccc(O)cc4C[C@@H](CCCCCCCCC[S+]([O-])CCCC(F)(F)C(F)(F)F)[C@H]3[C@@H]1CC[C@@H]2O (some centres not stated) [fulvestrant] | 1.94
O=C(c1ccc(F)c(F)c1Nc1ccc(I)cc1F)N1CC(O)([C@@H]2CCCCN2)C1 [cobimetinib] | -0.00394
O=C(/C=C/c1cccnc1)NCCCCC1CCN(C(=O)c2ccccc2)CC1 [FK866] | 0.137
CS(=O)(=O)c1ccc(C(=O)Nc2ccc(Cl)c(-c3ccccn3)c2)c(Cl)c1 [vismodegib] | 1.56
C=CCn1c(=O)c2cnc(Nc3ccc(N4CCN(C)CC4)cc3)nc2n1-c1cccc(C(C)(C)O)n1 [adavosertib] | 0.4

same assay, conditions: 100 µM; days in culture: 152

SMILES | CTG-3D luminescence at 96 h
COc1cc2c(Oc3ccc4[nH]c(C)cc4c3F)ncnc2cc1OCCCN1CCCC1 [cediranib] | 0.000827
CC(C)n1nc(-c2ccc3oc(N)nc3c2)c2c(N)ncnc21 [sapanisertib] | 0.0357
Cc1cc(Nc2ncnc3ccc(NC4=NC(C)(C)CO4)cc23)ccc1Oc1ccn2ncnc2c1 [tucatinib] | 0.0487
C[C@H](NC(=O)CCC(F)(F)F)C(=O)N[C@@H]1C(=O)N(CCO)c2ncccc2-c2ccccc21 [crenigacestat] | 2
C[C@]12CC[C@@H]3c4ccc(O)cc4C[C@@H](CCCCCCCCC[S+]([O-])CCCC(F)(F)C(F)(F)F)[C@H]3[C@@H]1CC[C@@H]2O (some centres not stated) [fulvestrant] | 1.6
O=C(c1ccc(F)c(F)c1Nc1ccc(I)cc1F)N1CC(O)([C@@H]2CCCCN2)C1 [cobimetinib] | -1.56e-05
O=C(/C=C/c1cccnc1)NCCCCC1CCN(C(=O)c2ccccc2)CC1 [FK866] | 0.0796
CS(=O)(=O)c1ccc(C(=O)Nc2ccc(Cl)c(-c3ccccn3)c2)c(Cl)c1 [vismodegib] | 0.857
C=CCn1c(=O)c2cnc(Nc3ccc(N4CCN(C)CC4)cc3)nc2n1-c1cccc(C(C)(C)O)n1 [adavosertib] | 0.519

same assay, conditions: 625 fM; days in culture: 110

SMILES | CTG-3D luminescence at 96 h
COc1cc2c(Oc3ccc4[nH]c(C)cc4c3F)ncnc2cc1OCCCN1CCCC1 [cediranib] | 2.01
CC(C)n1nc(-c2ccc3oc(N)nc3c2)c2c(N)ncnc21 [sapanisertib] | 2.26
Cc1cc(Nc2ncnc3ccc(NC4=NC(C)(C)CO4)cc23)ccc1Oc1ccn2ncnc2c1 [tucatinib] | 2.47
C[C@H](NC(=O)CCC(F)(F)F)C(=O)N[C@@H]1C(=O)N(CCO)c2ncccc2-c2ccccc21 [crenigacestat] | 2.28
C[C@]12CC[C@@H]3c4ccc(O)cc4C[C@@H](CCCCCCCCC[S+]([O-])CCCC(F)(F)C(F)(F)F)[C@H]3[C@@H]1CC[C@@H]2O (some centres not stated) [fulvestrant] | 1.57
O=C(c1ccc(F)c(F)c1Nc1ccc(I)cc1F)N1CC(O)([C@@H]2CCCCN2)C1 [cobimetinib] | 2.27
O=C(/C=C/c1cccnc1)NCCCCC1CCN(C(=O)c2ccccc2)CC1 [FK866] | 2.64
CS(=O)(=O)c1ccc(C(=O)Nc2ccc(Cl)c(-c3ccccn3)c2)c(Cl)c1 [vismodegib] | 2.06
C=CCn1c(=O)c2cnc(Nc3ccc(N4CCN(C)CC4)cc3)nc2n1-c1cccc(C(C)(C)O)n1 [adavosertib] | 2.37

same assay, conditions: 625 fM; days in culture: 131

SMILES | CTG-3D luminescence at 96 h
COc1cc2c(Oc3ccc4[nH]c(C)cc4c3F)ncnc2cc1OCCCN1CCCC1 [cediranib] | 3.39
CC(C)n1nc(-c2ccc3oc(N)nc3c2)c2c(N)ncnc21 [sapanisertib] | 3.58
Cc1cc(Nc2ncnc3ccc(NC4=NC(C)(C)CO4)cc23)ccc1Oc1ccn2ncnc2c1 [tucatinib] | 4.09
C[C@H](NC(=O)CCC(F)(F)F)C(=O)N[C@@H]1C(=O)N(CCO)c2ncccc2-c2ccccc21 [crenigacestat] | 3.74
C[C@]12CC[C@@H]3c4ccc(O)cc4C[C@@H](CCCCCCCCC[S+]([O-])CCCC(F)(F)C(F)(F)F)[C@H]3[C@@H]1CC[C@@H]2O (some centres not stated) [fulvestrant] | 4.13
O=C(c1ccc(F)c(F)c1Nc1ccc(I)cc1F)N1CC(O)([C@@H]2CCCCN2)C1 [cobimetinib] | 3.82
O=C(/C=C/c1cccnc1)NCCCCC1CCN(C(=O)c2ccccc2)CC1 [FK866] | 3.64
CS(=O)(=O)c1ccc(C(=O)Nc2ccc(Cl)c(-c3ccccn3)c2)c(Cl)c1 [vismodegib] | 3.4
C=CCn1c(=O)c2cnc(Nc3ccc(N4CCN(C)CC4)cc3)nc2n1-c1cccc(C(C)(C)O)n1 [adavosertib] | 3.56

same assay, conditions: 625 fM; days in culture: 152

SMILES | CTG-3D luminescence at 96 h
COc1cc2c(Oc3ccc4[nH]c(C)cc4c3F)ncnc2cc1OCCCN1CCCC1 [cediranib] | 2.04
CC(C)n1nc(-c2ccc3oc(N)nc3c2)c2c(N)ncnc21 [sapanisertib] | 2.12
Cc1cc(Nc2ncnc3ccc(NC4=NC(C)(C)CO4)cc23)ccc1Oc1ccn2ncnc2c1 [tucatinib] | 2
C[C@H](NC(=O)CCC(F)(F)F)C(=O)N[C@@H]1C(=O)N(CCO)c2ncccc2-c2ccccc21 [crenigacestat] | 2.48
C[C@]12CC[C@@H]3c4ccc(O)cc4C[C@@H](CCCCCCCCC[S+]([O-])CCCC(F)(F)C(F)(F)F)[C@H]3[C@@H]1CC[C@@H]2O (some centres not stated) [fulvestrant] | 2.94
O=C(c1ccc(F)c(F)c1Nc1ccc(I)cc1F)N1CC(O)([C@@H]2CCCCN2)C1 [cobimetinib] | 2.36
O=C(/C=C/c1cccnc1)NCCCCC1CCN(C(=O)c2ccccc2)CC1 [FK866] | 1.93
CS(=O)(=O)c1ccc(C(=O)Nc2ccc(Cl)c(-c3ccccn3)c2)c(Cl)c1 [vismodegib] | 1.86
C=CCn1c(=O)c2cnc(Nc3ccc(N4CCN(C)CC4)cc3)nc2n1-c1cccc(C(C)(C)O)n1 [adavosertib] | 2.53
